Test results taken from US6926890B2, “Non-invasive approach for assessing tumors in living animals” (priority 2000, dated 2005).
“Also recorded” adds a separate entry of the source.

B1: β-hCG: β-subunit of human chorionic gonadotropin, glycoprotein hormone secreted by recombinant tumor cells as urinary marker (protein)
chain: SKEPLRPRCRPINATLAVEKEGCPVCITVNTTICAGYCPTMTRVLQGVLPALPQVVCNYRDVRFESIRLPGCPRGVNPVVSYAVALSCQCALCRRSTTDCGGPKDHPLTCDDPRFQDSSSSKAPPPSLPSPSRLPGPSDTPILPQ

What was measured:
EMT6-CG-TK cells = experiment: Ganciclovir treatment of intraperitoneal EMT6-CG-TK tumors monitored by urinary β-hCG; format: in vivo, Balb/c mice
Experimental: (§1) FIG. 5C. Urinary β-hCG levels before and after ganciclovir (GCV) treatment of intraperitoneal tumors. Five Balb/c mice were injected intraperitoneally with 4×10^6 EMT6-CG-TK cells (black symbols). They received a four-day course of ganciclovir (150 mg/kg/day), administered intraperitoneally beginning three days after tumor cell injection.
(§2) The β-hCG MAIAclone kit (Polymedco Inc. Cortlandt Manor, N.Y.), based on an immunoradiometric system, was used for quantitative determination of urinary β-hCG. Fifty μl of mouse urine samples diluted to achieve a final β-hCG concentration of 2.5-20 mIU/ml, standards, positive and negative controls were mixed with 0.5 ml of ^125I anti-hCG antibodies in 12×75 mm glass tubes (VWR Scientific, Boston, Mass.) and incubated at 37° C. for 15 min. […] The radioactivity of each sample was analyzed in a Gamma 5500 counter (Beckman, Fullerton, Calif.). […] Urinary β-hCG levels were normalized to urinary creatinine measured with a Roche Hitachi 917 analyzer (Roche Diagnostics, Indianapolis, Ind.). The ratio of β-hCG to creatinine was expressed as mIU β-hCG/mg creatinine.
(§3) Next the recombinant tumor system of the present invention was applied to a chemotherapeutic model. […] The difference between the kinetics of tumor cell death mediated by surgery and chemotherapy is readily evident through comparison of FIGS. 5A and 5C.

EMT6-CG tumors = experiment: Ganciclovir treatment of control EMT6-CG tumors monitored by urinary β-hCG; format: in vivo, Balb/c mice; conditions: control EMT6-CG tumors without thymidine kinase
Experimental: as §1, §2, §3

[1] = Comparison of β-hCG concentrations in urine and serum of mice with subcutaneous B16-CG tumors; format: in vivo; conditions: serum 10-240 mIU/ml, six mice
Experimental: The β-hCG MAIAclone kit (Polymedco Inc. Cortlandt Manor, N.Y.), based on an immunoradiometric system, was used for quantitative determination of urinary β-hCG. Fifty μl of mouse urine samples diluted to achieve a final β-hCG concentration of 2.5-20 mIU/ml, standards, positive and negative controls were mixed with 0.5 ml of ^125I anti-hCG antibodies in 12×75 mm glass tubes (VWR Scientific, Boston, Mass.) and incubated at 37° C. for 15 min. Two hundred μl of the magnetic separation matrix provided with the kit was then added to each tube and incubated for 5 min at room temperature. The magnetic reagent with bound β-hCG was separated using a magnetic concentrator (Polymedco Inc.). The matrix was washed in 0.5 ml of the MAIAclone washing buffer provided with the kit and reseparated magnetically. The radioactivity of each sample was analyzed in a Gamma 5500 counter (Beckman, Fullerton, Calif.). The minimal detectable level of β-hCG was 2.5 mIU/ml. Urinary β-hCG levels were normalized to urinary creatinine measured with a Roche Hitachi 917 analyzer (Roche Diagnostics, Indianapolis, Ind.). The ratio of β-hCG to creatinine was expressed as mIU β-hCG/mg creatinine.
To determine whether β-hCG would be excreted in the urine of mice, as it is in pregnant women, the concentrations of β-hCG in urine and serum of mice with subcutaneous B16-CG tumors were compared. […]

[2] = Clearance of urinary β-hCG after surgical removal of subcutaneous SW480-CG tumors; format: in vivo, athymic (nu/nu) mice
Experimental: Female mice, 10-12 weeks old, were obtained from Harlan (Indianapolis, Ind.). For tail vein injections, 10^5 B 16-CG cells in 0.1 ml PBS were injected into C57BL/6 mice. For intraperitoneal administration, 2×10^6 EMT6-CG cells in 0.3 ml PBS were injected intraperitoneally into Balb/c mice. For intrasplenic injection, 10^6 B16-CG cells in 0.1 ml PBS were injected into the spleens of athymic (nu/nu) mice. For subcutaneous injection, 3×10^6 B16-CG cells or 8×10^6 SW480-CG cells in 0.1 ml PBS were injected into subcutaneous tissues adjacent to the lower spine of athymic (nu/nu) mice.
as §2, with “creatinine. […]” for “creatinine.”

Row | Molecule | Urinary β-hCG levels after ganciclovir treatment (EMT6-CG-TK cells; ganciclovir 150 mg/kg/day intraperitoneally, four-day course beginning three days after tumor cell injection) | Necropsy finding after ganciclovir treatment (EMT6-CG-TK cells; necropsy after β-hCG declined to background) | Tumor response to ganciclovir (urinary β-hCG) (EMT6-CG tumors) | urine concentration relative to serum concentration of β-hCG [1] | half-life of urinary β-hCG ([2]; after surgical removal of SW480-CG tumors, eight animals) [h] | Urinary β-hCG levels after tumor removal ([2]; subcutaneous SW480-CG tumors removed 18 days after implantation, within a day or two of removal)
1 | Nc1nc(O)c2ncn(COC(CO)CO)c2n1 [ganciclovir] | began to decline one day after the start of ganciclovir treatment; also recorded: declined to background levels over the next five days | apparently tumor free, without ascites or peritoneal implants | did not respond; also recorded: continued to grow |  |  | 
2 | B1 |  |  |  | 3.8±0.31 times the serum concentration | 11 ± 2.3 | rapidly dropped to undetectable levels
